Results published in patent US20100087534A1, “Use of a Photosensitizing Agent in the Treatment or Prevention of an Inflammation-Associated Disorder in the Gastrointestinal Tract of a Mammal” (priority 2005, published 2010).

Legend:
[1] = system: CD4+ cells in the inflamed colonic mucosa; test: Annexin-V mediated detection of apoptosis in CD4+ cells of colonic mucosa; type: in vivo, SCID mice; conditions: time zero reference 1.8±0.2%
Protocol: (§1) PDT was performed with a photosensitizing agent (δ-ALA) dose of 15 mg/kg, administered 3 hours before the illumination with the energy dose of 10 J/cm^2 per gastrointestinal tract tissue.
For Annexin-V mediated detection of apoptosis mice were sacrificed 4 or 20 hours after low dose PDT later. Untreated inflamed mice were also sacrificed and were considered as the time zero reference. In order to extract cells from the colonic mucosa, treated portions of the colons, or equivalent portions in untreated mice, were collected, cut into small pieces and individually incubated for 20 minutes at room temperature under constant agitation in a PBS solution containing 5 mM EDTA. […] Cells were then analyzed through a FACscan flowcytometer (Becton Dickinson), once in the absence of propidium iodide (PI) and once in the presence of PI in order to identify population of viable cells. The percentage of Annexin-V^+ cells within the CD4^+ population was finally calculated based on a forward and side scatter gated population consisting of viable cells (>98% of PI negative cells) and containing the most percentage of CD4^+ cells (>80%).

[2] = Safety of colonoscopy and low/high dose PDT in wild type BALB/c mice
[3] = system: SCID mice with colitis induced by transfer of CD4+CD45RBhigh T-cells; test: PDT in CD4+CD45RBhigh transfer colitis, clinical and endoscopic follow-up (Example 1); type: in vivo
Protocol: b) A rigid mini-endoscope Hopkins I (vision direct 0°, length 10 cm, diameter 1.9 mm, Anklin, Binningen, Switzerland) with a 9 Charrière (Ch) tube and a channel for instrumentation (Flexible biopsy forceps Ch 3, 53 cm length) coupled on the Coloview Basic equipment (light source Xenon 175 and Endovision Telecam SLB; Storz Inc, Tuttlingen, Germany) and the home made air inflation system (see above). […] First the colonoscopy technique was optimised in 10 wild type BALB/c mice and 10 SCID mice, which were colonoscoped repeatedly (3 times within a 2 weeks time period). Afterwards the accuracy of colonoscopy in diagnosis colitis was evaluated in BALB/c mice with sodium dextran sulfate (DSS) induced colitis and in SCID mice with colitis induced by transfer of a subpopulation of CD4+CD45RBhigh T-cells. For this purpose the mice were colonoscoped at diverse time points after onset of DSS administration or T-cell transfer and the endosocpic image was compared with the endoscopic image of normal mice and the histology after sacrificing the mice.
To induce CD4+ CD45RBhigh transfer colitis, T cells used for the adoptive transfer of the SCID mice were obtained from the spleens of six weeks old wild type BALB/c mice that were housed under specific pathogen-free (SPF) conditions at our animal care facility. Mice were sacrificed by cervical dislocation under anesthesia and spleen were recovered and kept in cold RPMI 1640 medium complemented with a final concentration of 2% fetal calf serum (FCS) until processing. The tissue was forced through 70 μm and 40 μm nylon meshes and washed. Spleen cells were then centrifugated and the pellet was resuspended in 5 ml of cold medium for counting. The cellular preparation was then enriched in CD4+ cells by magnetic cell sorting using CD4 (L3T4) MACS microbeads (Miltenyi Biotec, Gladbach, Germany). The enriched cells were then stained using fluorescein isothiocynate (FITC)-conjugated anti-CD4 and phyoerythrin (PE)—conjugated anti-CD45RB monoclonal antibodies (BD, Biosciences Pharmingen, San Diego, USA). CD4+CD45RB high cells were sorted by FACS, resuspended in PBS at the concentration of 10^6 cells/ml and finally 10^5 cells were injected intravenously under sterile conditions into 4-6 weeks old SCID mice.
Colonoscopy could safely be performed in normal BALB/c mice and SCID mice. The mouse colon could be intubated up to the right flexure. The length of the accessible mouse colon was approximately 4 cm with the rectum comprised. In DSS induced colitis a correlation between colitis and weight loss was observed, whereas in SCID mice with colitis after CD4+CD45RB^high T-cell transfer, endoscopic signs of colitis developed earlier as weight loss and the correlation between endoscopic signs of colitis and weight loss was less good. The colitis in DSS mice was segmental, the rectum was always spared, erythema, ulcerations, changes of the normal vascular pattern could be observed. […] Furthermore, since the length of the accessible mouse colon was only about 4 cm, they changed their scoring system concerning the length.

[4] = system: SCID mice with TH1-mediated Crohn-like colitis after transfer of CD4+CD45RBhigh T-cells; test: Histological analysis of colon after low dose PDT in transfer colitis (Example 2); type: in vivo
Protocol: Evolution of colitis in SCID mice was monitored every week by colonoscopic investigation after induction. Mice with moderately inflamed colons [endoscopic index of colitis severity (EICS) index 4-8] or marked inflamed colons (EICS 9-13) were randomly assigned to either a <<low dose>> PDT group or no treatment group (disease control group). Unmanipulated age-matched SCID mice served as negative controls.
as §1
The illumination time was 100 s, the wavelength 635 nm.
Mice were monitored by colonoscopy at day 3 and weeks 1, 2, 3 and 4 post PDT treatment. In addition to parameters investigated in example 1, CD4 immunostaining and apoptosis detection were performed.

[5] = of the 4 mice which developed signs of severe disease

NCC(=O)CCC(=O)O [δ-ALA, 5-aminolevulinic acid]
percentage of Annexin V+ cells in the CD4+/PI- population ([1]; 4 hours after low dose PDT, P=0.0043): 3.0±0.3%
percentage of Annexin V+ cells in the CD4+/PI- population ([1]; 20 hours after low dose PDT, P=0.0012): 4.6±0.5%
signs of skin phototoxicity ([2]; all experimental groups): no signs of skin phototoxicity were observed
histology of colon (microscopic changes) ([2]; all groups other than high dose PDT): no microscopic changes were observed
exterior aspect of mice (quality of life) ([2]; all groups other than high dose PDT (low dose PDT, δ-ALA only), 74 h observation): the exterior aspect of mice remained unchanged
changes in the blood formula ([2]; any of the experimental conditions, 0 and 74 h): No significant changes in the blood formula were seen
inflammatory cells by anti-MAC immunostaining ([2]; high dose PDT, compared to naïve mice): an increase of inflammatory cells was observed
inflammatory cells by anti-MAC immunostaining ([2]; low dose PDT): did not lead to an increase in inflammatory cells
macroscopic aspect of colon ([2]; low dose PDT, 74 hours): the colon appeared macroscopically normal
signs of photosensitivity or damage of the mucosa ([3]; any of the animals): No signs of photosensitivity or damage of the mucosa was observed
endoscopic severity index after PDT ([3]; mice that could be followed up by colonoscopy): improved significantly
mice cured by PDT [3, 5]: 2 mice
mice with improved clinical signs after PDT [3, 5]: one
mice without clinical response ([3]; one of the 4 mice which developed signs of severe disease): 25%
histology of illuminated portion of colon ([4]; PDT-treated mice, illuminated portion): a normal mucosa with low cellular infiltration
histological score of inflammation ([4]; marked inflamed mice, 3 days after PDT, DC mice 7.7±0.6, P=0.0250): 4.6±0.8
